Data from patent US20240423988A1, “Improvement of Tumor Immunogenicity by Means of Splicing-Controlling Compound” (Kyoto University, priority 2021, published 2024).

Assays:
MC38 cells [1] = assay: RT-PCR analysis with neojunction primers; assay type: cell-based, murine; details: 10 μM, 6 hours
Description: [FIG. 5-2] Continuation of FIG. 5. D and E: RT-PCR analysis for splice-neoantigen coding forms (splice-NA forms) in MC38 cells treated with 10 µM Compound 1 or vehicle control (0.1% DMSO) for 6 hours. Actb served as a loading control. * represents p<0.05, ** represents p<0.01, and *** represents p<0.001. F: Splice-neoantigen producing rates calculated from RNA-seq data (n=3 biological replicates) are indicated as the APSI (Compound 1-DMSO). All data are shown as the mean±SEM. All experiments were performed at least twice. Statistical significance was determined using unpaired Student's t-test for (B) and (E).
In addition to the RNA-seq analysis, the induction of these splice-neoantigen-coding transcripts via treatment with Compound 1 was also validated using RT-PCR analysis with neojunction primers in MC38 cells (FIGS. 5-2D and 5-2E). The immunogenicity of the identified splice-neoantigens was confirmed using an IFN-γ ELISpot assay.
Total RNA was extracted from cells using a RNeasy Mini Kit (Qiagen), according to the manufacturer's protocol, and subjected to reverse transcription using a High Capacity cDNA Reverse Transcription Kit (Applied Biosystems, Foster City, CA). Genes were amplified with KOD One DNA polymerase (ToYoBo) and target-specific primer sets. […] Ethidium bromide-stained images were captured using a ChemiDoc MP Imaging System and the data were analyzed using ImageJ software. […]

MC38 cells [2] = assay: Cell proliferation and cell death, CCK-8 and LDH assays; assay type: cell-based, murine; details: concentrations effective in vivo
Description: (§1) [FIG. 1-1] FIG. 1. Chemical activation of SRSFs exerts antitumor effects in a CD8^+ T cell-dependent manner and potentiates the response to PD-1 blockade. A: Experimental procedure involving an MC38 tumor-bearing model. B and C: Tumor volumes (B) and survival (C) are shown (n=12/group). ** represents p<0.01; and *** represents p<0.001. D and E: MC38 cells were treated with Compound 1 for 72 hours (D) or for the indicated time (E). Cell proliferation and cell death were measured using CCK-8 and LDH assays, respectively (n=3/group). F and G: Representative images (F) and quantitative data (G) of flow cytometry are shown (n=[…]/group). * represents p<0.05. H: Experimental procedure of antibody injection in an MC38 tumor-bearing model.
(§2) First, in vivo activity was assessed using syngeneic MC38 tumors intradermally transplanted into […] mice (FIG. 1-1A).

MC38 tumors = assay: MC38 tumor-bearing model; assay type: in vivo
Description: as §1
[FIG. 1-2] Continuation of FIG. 1. I to L; Representative images (I and K) and quantitative data (J and L) of flow cytometry are shown (n=7/group for spleen (J); n=10/group for tumor (L)). *** represents p<0.001. M and N: Tumor growth curves (M) and tumor volumes on day 23 (N) are shown (n=10/group). * represents p<0.05. “ns” represents “not significant”. O and P: Tumor volumes of mice (n=12/group) are shown collectively (O) or individually (P). ** represents p<0.01, and *** represents p<0.001, vs. isotype IgG+vehicle. # represents p<0.05, and […] represents p<0.001, between the indicated groups. Q: Changes in body weight of mice (n=5/group). In FIG. 1, all data are shown as the mean±SEM. All experiments were performed at least twice. Statistical significance was determined using unpaired Student's t-test for (G), (J), (L), and (N), and one-way ANOVA followed by Bonferroni's multiple comparisons test for (B) and (O).
as §2
Based on these observations, whether the Compound 1 induced antitumor effects were due to enhanced cancer immunity was then examined. Endogenous CD8^+ T cells were depleted using CD8-depleting antibody (αCD8), and the antitumor effects of Compound 1 administration were evaluated (FIG. 1-1H).

[3] = syngeneic MC38 tumors intradermally transplanted

Clc1nc(NCc2ccco2)c2[nH]cnc2n1 [Compound 1]
splice-neoantigen-coding transcripts (MC38 cells [1]): induction
cytotoxicity or cytostasis in vitro (MC38 cells [2]): not associated with cytotoxicity or cytostasis
tumor suppression when CD8^+ T cells were depleted (MC38 tumors; CD8-depleting antibody (αCD8)): not effective
suppressed tumor growth (MC38 tumors; day 23, vs. isotype IgG+vehicle): 28.5%
frequency of tumor-infiltrating CD8+ T cells (MC38 tumors; extracted tumors, flow cytometry): about 1.5 fold
changes in the expression of PD-L1 (MC38 tumors; host dendritic cells or macrophages): not detected
body weight or apparent adverse effects (MC38 tumors; mouse, in vivo): no change in body weight or apparent adverse effects
in vivo tumor growth (MC38 tumors; [3]): tumor growth suppression
survival (MC38 tumors; [3]): prolonged survival
